Patent publication US20060233809A1, “Method for treating prostate conditions” (priority 2005, published 2006)
Like-named read-outs stand apart in the source and are kept apart here.

Key:
[1] = test system: AR protein in RPE cells (BCRP-mediated transport); experiment: Immunocytochemical analysis of nuclear-localized AR protein in RPE cells; format: cell-based, rat; details: 50 μmol/L novobiocin and/or 3 nmol/L dihydrotestosterone, 14 hours; immunocytochemistry, n>200 cells/group
[2] = limiting use in vivo; cited from earlier work
[3] = molecular target: T1, BCRP (Rattus norvegicus, UniProt Q80W57); format: cell-based; details: RPE cells
T1 construct: the Mx-RPE cells have a higher level of BCRP activity than RPE cells; endogenous in cells; host or cells: Mx-RPE (mitoxantrone-resistant subline of rat RPE cells)
T1 sequence (Q80W57 1-657): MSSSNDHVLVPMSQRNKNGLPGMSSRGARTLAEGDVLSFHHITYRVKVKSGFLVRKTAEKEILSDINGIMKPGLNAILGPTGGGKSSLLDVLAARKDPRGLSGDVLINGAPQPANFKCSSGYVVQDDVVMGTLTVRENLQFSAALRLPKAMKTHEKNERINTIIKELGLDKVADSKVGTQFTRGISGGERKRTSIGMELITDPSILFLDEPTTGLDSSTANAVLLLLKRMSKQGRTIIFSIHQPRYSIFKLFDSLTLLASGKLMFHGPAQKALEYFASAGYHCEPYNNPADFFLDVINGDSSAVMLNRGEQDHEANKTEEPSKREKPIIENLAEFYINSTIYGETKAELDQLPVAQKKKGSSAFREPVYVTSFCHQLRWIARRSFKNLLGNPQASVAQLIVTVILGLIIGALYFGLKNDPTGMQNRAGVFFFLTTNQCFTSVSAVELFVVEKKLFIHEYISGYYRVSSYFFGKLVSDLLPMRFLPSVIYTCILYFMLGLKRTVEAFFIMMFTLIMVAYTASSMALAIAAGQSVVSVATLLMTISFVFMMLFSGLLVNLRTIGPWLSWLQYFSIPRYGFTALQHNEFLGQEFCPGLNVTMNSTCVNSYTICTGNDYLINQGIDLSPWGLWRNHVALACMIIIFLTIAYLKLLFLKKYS
Excerpt: (§1) Data for Hoechst 33342 efflux represent two independent experiments (n>1,000 cells, *** P<0.0001).
(§2) Additionally, novobiocin and fumitremorgin C were compared in RPE cells as inhibitors of BCRP-mediated efflux of Hoechst 33342, the marker utilized to identify the side population phenotype of stem cells. Fumitremorgin C is a specific inhibitor for BCRP-mediated transport.

[4] = molecular target: T1, BCRP; format: cell-based; details: Mx-RPE cells
Excerpt: as §1
Rat prostate progenitor (stem cell-like) cell lines (RPE, DP2, DP3, and DP4) were established from regenerating prostates of Fischer-344 rats and were maintained in prostate growth media (Presnell et al., Prostate Cancer Prostatic Dis (1999); 2:257-63) supplemented with 2% fetal bovine serum (FBS; Hyclone, Logan, UT) without androgen supplementation. […] A subpopulation of RPE cells was selected for resistance to mitoxantrone (Mx-RPE) by continuous culture in increasing concentrations of mitoxantrone (0.2-4 μmol/L; Sigma).
Additionally, novobiocin and fumitremorgin C were compared in RPE cells as inhibitors of BCRP-mediated efflux of Hoechst 33342, the marker utilized to identify the side population phenotype of stem cells. Fumitremorgin C is a specific inhibitor for BCRP-mediated transport. […] The moderate increase in nuclear Hoechst 33342 dye in RPE cells with inhibited BCRP function reflects a combination of the limited dynamic range of digital imaging technology and the constitutive expression of MDR-1 in the RPE cells (data not shown) because MDR-1 also effectively transports Hoechst 33342 dye; however, novobiocin and fumitremorgin C inhibit only the BCRP-mediated component of Hoechst efflux, not MDR-1 function (Doyle et al., Oncogene (2003); 22:7340-58; Shiozawa et al., Int. J. Cancer (2004); 108:146-51).

[5] = test system: AR protein in RPE cells (BCRP function); experiment: Immunoblot analysis of AR protein in RPE cell lysates; format: cell-based, rat; details: 50 μmol/L novobiocin and/or 3 nmol/L dihydrotestosterone; normalized to actin
[6] = test system: TRAMP mice; experiment: Foci of SV40Tag+ cells in prostates of castrated TRAMP mice treated with novobiocin; format: in vivo, mouse; details: novobiocin 25 mg/kg/5 times a week
Excerpt: In this model, the PB-SV40 large T antigen transgene (SV40Tag) is expressed specifically in the epithelial cells of the murine prostate. Cells expressing the SV40Tag transgene can be detected by immunohistological methods using labeled monoclonal antibodies to SV40Tag. Adenocarcinoma of the prostate in TRAMP mice arises as early as eight weeks of age and is characterized by tumor cells that uniformly express high levels of AR and that regress upon castration. In contrast, poorly differentiated neuroendocrine-like carcinomas in TRAMP mice are characterized by expression of the neuroendocrine marker synaptophysin, and an absence, or weak and heterogeneous expression of AR. Neuroendocrine-like carcinomas are rare in young TRAMP mice, but arise rapidly in mice that are castrated between 12 and 14 weeks of age (Kaplan-Lefko et al., Prostate (2003); 55:219-37; Johnson et al., Prostate (2005); 62:322-38).
Treatment of the TRAMP mice with novobiocin (25 mg/kg/5 times a week), or saline (physiologic saline/5 times a week), was initiated at 13 weeks of age and all mice were castrated at 14 weeks of age (1 week following initiation of treatment). TRAMP mice were treated until 19 weeks of age, at which time the prostates, lymph nodes, small intestine, and liver were harvested and processed for analysis using standard techniques. […]

[7] = test system: DP3 cell line; experiment: Intracellular [3H]dihydrotestosterone accumulation in BCRP-lacking DP3 control cell line; format: cell-based, rat; details: DP3 cell line (lacks BCRP)
Excerpt: as §2

[8] = cited from earlier work

Row | SMILES | increase in the level of nuclear-localized AR in RPE cells [1] [fold] | neurotoxicity [2] | increase in nuclear Hoechst 33342 compared with the DMSO control ([3]; 10 μmol/L fumitremorgin C) [fold] | increase in intracellular levels of [3H]dihydrotestosterone ([4]; 10 μmol/L fumitremorgin C) [fold] | increase of AR protein in RPE cells (immunoblot) [5] [fold] | establishment of recurrent growth in TRAMP [6] | #Foci/Animal, pattern: >10 cells Differentiated ([6]; 13 to 19 weeks of age) | effect on the level of accumulation of intracellular [3H]dihydrotestosterone [7] | increase in retention of Hoechst 33342 ([3]; 5 mmol/L novobiocin) [fold] | increase in retention of Hoechst 33342 ([3]; 10 mmol/L novobiocin) [fold] | toxicity in humans [8] | increase in intracellular levels of [3H]dihydrotestosterone ([4]; 5 mmol/L novobiocin) [fold] | increase in intracellular levels of [3H]dihydrotestosterone ([4]; 10 mmol/L novobiocin) [fold]
1 | C[C@]12CCC(=O)C[C@@H]1CC[C@@H]1[C@@H]2CC[C@]2(C)[C@@H](O)CC[C@@H]12 [dihydrotestosterone] | 2.8 |  |  |  |  |  |  |  |  |  |  |  | 
2 | COc1ccc2c3c([nH]c2c1)[C@H](C=C(C)C)N1C(=O)[C@@H]2CCCN2C(=O)[C@@H]1C3 [fumitremorgin C] |  | extremely neurotoxic | 2.3 | 3.3 |  |  |  |  |  |  |  |  | 
3 | CO[C@@H]1[C@@H](OC(N)=O)[C@@H](O)[C@H](Oc2ccc3c(O)c(NC(=O)c4ccc(O)c(CC=C(C)C)c4)c(=O)oc3c2C)OC1(C)C [novobiocin] | 2.4 |  |  |  | 7 | inhibited establishment of recurrent growth | significant increase | no effect | 1.2 | 1.45 | well tolerated toxicity in humans | 2.4 | 5.5
